Source: patent US9187465B2, “Oxazole tyrosine kinase inhibitors” (Sareum Limited, priority 2007, dated 2015)

Experiments:
[1] = test system: SW620, HCT-116, Colo205, A549, Calu-6 or HL-60 tumour xenografts; details: cited from earlier work
[2] = test system: HCT116 cells; test: Anti-proliferative activity, Alamar Blue assay, HCT116; type: cell-based; details: Homo sapiens, HCT-116, 72 hours, read-out: cell proliferation IC50
Protocol: (§1) The anti-proliferative activities of compounds of the invention are determined by measuring the ability of the compounds to inhibition of cell growth in a number of cell lines. Inhibition of cell growth is measured using the Alamar Blue assay (Nociari et al., Journal of Immunological Methods (1998) 213, 157-167). The method is based on the ability of viable cells to reduce resazurin to its fluorescent product resorufin. For each proliferation assay cells are plated onto 96 well plates and allowed to recover for 16 hours prior to the addition of inhibitor compounds for a further 72 hours. At the end of the incubation period 10% (v/v) Alamar Blue is added and incubated for a further 6 hours prior to determination of fluorescent product at Excitation 535 nm and Emission 590 nm. In the case of the non-proliferating cell assay cells are maintained at confluence for 96 hour prior to the addition of inhibitor compounds for a further 72 hours. The number of viable cells is determined by Alamar Blue assay as before. All cell lines are obtained from ECACC (European Collection of cell Cultures).

[3] = test system: A549 human lung carcinoma cells; test: Anti-proliferative activity, Alamar Blue assay, A549; type: cell-based; details: A549, 72 h, read-out: cell growth IC50
Protocol: as §1

[4] = target: T1, human FLT3 (Homo sapiens, UniProt P36888); test: FLT3 kinase assay (DELFIA enzyme inhibition); type: biochemical
T1 construct: a construct expressing the human FLT3 (564-993) with an amino terminal GST tag; host or cells: Sf9 insect cells (baculovirus)
T1 sequence (P36888 564-993): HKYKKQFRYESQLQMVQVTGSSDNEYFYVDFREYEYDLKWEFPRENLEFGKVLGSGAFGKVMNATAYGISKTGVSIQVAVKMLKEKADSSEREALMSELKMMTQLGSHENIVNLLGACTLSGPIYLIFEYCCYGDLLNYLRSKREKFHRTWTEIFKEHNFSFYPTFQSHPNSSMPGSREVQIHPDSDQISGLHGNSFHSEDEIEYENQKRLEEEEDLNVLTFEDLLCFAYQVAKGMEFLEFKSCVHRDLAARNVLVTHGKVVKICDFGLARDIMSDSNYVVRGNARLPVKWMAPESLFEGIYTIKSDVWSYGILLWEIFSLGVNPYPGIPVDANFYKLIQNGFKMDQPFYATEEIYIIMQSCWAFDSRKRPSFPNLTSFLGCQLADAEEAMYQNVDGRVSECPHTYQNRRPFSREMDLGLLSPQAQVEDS
Method in brief: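 GST-tagged human FLT3 (564-993), expressed in sf9 cells, phosphorylated a biotinylated Gastrin Precursor (Tyr 87)-derived peptide for 30 min at room temperature before EDTA stop. The captured peptide was detected by Eu-labelled anti-phosphotyrosine DELFIA time-resolved fluorescence. IC50 was derived from % inhibition curves.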

[5] = target: T2, human FLT4 (Homo sapiens, UniProt P35916); test: FLT4 kinase assay (DELFIA enzyme inhibition); type: biochemical; details: read-out: FLT4 IC50
T2 construct: a construct expressing the human FLT4 (789-1207) with an amino terminal GST tag; host or cells: Sf9 insect cells (baculovirus)
Method in brief: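 Read-out is DELFIA: biotinylated MET Tyr1253-derived peptide captured on Neutravidin, phosphotyrosine detected by Eu-antibody time-resolved fluorescence. Enzyme is Sf9-expressed GST-FLT4 (789-1207), reacting 30 min at room temperature before EDTA stop. IC50 derived from plotted % inhibition.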

[6] = target: T3, human Aurora A (Homo sapiens, UniProt O14965); test: Aurora A kinase assay (DELFIA enzyme inhibition); type: biochemical; details: read-out: Aurora A IC50
T3 construct: Histidine tag (N); host or cells: Sf9 insect cells (baculovirus)
T3 sequence (O14965 1-403): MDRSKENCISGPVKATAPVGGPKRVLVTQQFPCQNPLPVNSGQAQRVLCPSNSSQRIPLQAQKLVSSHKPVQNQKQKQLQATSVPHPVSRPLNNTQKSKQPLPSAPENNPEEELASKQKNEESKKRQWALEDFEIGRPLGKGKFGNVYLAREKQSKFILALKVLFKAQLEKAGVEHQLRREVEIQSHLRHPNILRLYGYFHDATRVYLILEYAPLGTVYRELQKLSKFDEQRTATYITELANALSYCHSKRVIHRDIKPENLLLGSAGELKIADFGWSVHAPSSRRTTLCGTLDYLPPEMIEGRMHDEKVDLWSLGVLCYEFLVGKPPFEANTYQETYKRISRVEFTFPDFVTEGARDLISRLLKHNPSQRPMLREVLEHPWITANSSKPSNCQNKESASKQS
Method in brief: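 DELFIA read-out (time-resolved Eu fluorescence, 620 nm emission) after Neutravidin capture of biotinylated peptide substrate and antibody detection. Reaction: Ni-agarose-purified Aurora A, 30 min at room temperature, stopped with 100 mM EDTA.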

[7] = test system: treatment-refractory primary Acute Myelogenous Leukemia (AML) cells; details: treatment-refractory cells from patients; cited from earlier work

T2 sequence (P35916 789-1207): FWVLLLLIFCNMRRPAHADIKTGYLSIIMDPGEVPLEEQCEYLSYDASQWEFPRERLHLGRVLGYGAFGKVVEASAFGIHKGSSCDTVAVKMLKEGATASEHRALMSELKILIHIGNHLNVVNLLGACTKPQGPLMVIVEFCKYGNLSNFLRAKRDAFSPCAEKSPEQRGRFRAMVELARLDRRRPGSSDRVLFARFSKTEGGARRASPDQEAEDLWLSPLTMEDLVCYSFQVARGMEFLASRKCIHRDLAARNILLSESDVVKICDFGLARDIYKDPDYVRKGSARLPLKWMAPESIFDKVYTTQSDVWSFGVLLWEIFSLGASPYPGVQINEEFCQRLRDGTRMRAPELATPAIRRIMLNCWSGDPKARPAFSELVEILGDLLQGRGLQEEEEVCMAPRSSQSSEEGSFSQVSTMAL

IC50 [2] [µM] | IC50 [3] [µM] | IC50 [4] [µM] | IC50 [5] [µM] | IC50 [6] [µM] | Structure (SMILES) | complete tumour regression (animals) ([1]; HL-60 xenograft) | inhibition of tumour growth ([1]; dosed over 48 h via sub-cutaneous mini-pump infusion, all xenograft models) | killing of primary AML cells [7]
– | – | – | – | – | CCN(CCCOc1ccc2c(Nc3cc(CC(=O)Nc4cccc(F)c4)n[nH]3)ncnc2c1)CCOP(=O)(O)O [AZD1152] | 8 of 11 | 55% to 100 | –
< 10 | < 10 | < 10 | < 10 | < 10 | NC(=O)c1nc(-c2c(F)cccc2F)oc1-c1ccc(N2CCNCC2)cc1 [Example G-3, 2-(2,6-difluorophenyl)-5-(4-(piperazin-1-yl)phenyl)oxazole-4-carboxamide] | – | – | –
< 10 | < 10 | < 10 | < 10 | < 10 | NC(=O)c1nc(-c2c(F)cccc2Cl)oc1-c1ccc(N2CCNCC2)cc1 [Example G-5, 2-(2-chloro-6-fluorophenyl)-5-(4-(piperazin-1-yl)phenyl)oxazole-4-carboxamide] | – | – | –
< 10 | < 10 | < 10 | < 10 | < 10 | NC(=O)c1nc(-c2cccc3[nH]ccc23)oc1-c1ccc(N2CCNCC2)cc1 [Example M-12, 2-(1H-indol-4-yl)-5-(4-(piperazin-1-yl)phenyl)oxazole-4-carboxamide] | – | – | –
< 10 | < 10 | < 10 | < 10 | < 10 | NC(=O)c1nc(-c2cccc3[nH]ncc23)oc1-c1ccc(N2CCNCC2)cc1 [Example M-17, 2-(1H-indazol-4-yl)-5-(4-(piperazin-1-yl)phenyl)oxazole-4-carboxamide] | – | – | –
< 10 | < 10 | < 10 | < 10 | < 10 | CS(=O)(=O)c1ccc(Nc2oc(-c3c(F)cccc3F)nc2C(N)=O)cc1 [Example Q-3, 2-(2,6-difluorophenyl)-5-(4-(methylsulfonyl)phenylamino)oxazole-4-carboxamide] | – | – | –
< 10 | < 10 | < 10 | < 10 | < 10 | NC(=O)c1nc(-c2c(F)cccc2F)oc1Nc1ccc(N2CCNCC2)cc1 [Example Q-11, 2-(2,6-difluorophenyl)-5-(4-(piperazin-1-yl)phenylamino)oxazole-4-carboxamide] | – | – | –
< 10 | < 10 | < 10 | < 10 | < 10 | CN1CCN(C(=O)c2ccc(Nc3oc(-c4c(F)cccc4F)nc3C(N)=O)cc2)CC1 [Example Q-14, 2-(2,6-difluorophenyl)-5-(4-(4-methylpiperazine-1-carbonyl)phenylamino) oxazole-4-carboxamide] | – | – | –
< 10 | < 10 | < 10 | < 10 | < 10 | NC(=O)c1nc(-c2c(F)cccc2Cl)oc1Nc1ccc(N2CCNCC2)cc1 [Example Q-36, 2-(2-chloro-6-fluorophenyl)-5-(4-(piperazin-1-yl)phenylamino)oxazole-4-carboxamide] | – | – | –
< 10 | < 10 | < 10 | < 10 | < 10 | CN1CCN(C(=O)c2ccc(Nc3oc(-c4c(F)cccc4Cl)nc3C(N)=O)cc2)CC1 [Example Q-57] | – | – | –
< 10 | < 10 | < 10 | < 10 | < 10 | NC(=O)c1nc(Nc2c(F)cccc2F)oc1-c1ccc(N2CCNCC2)cc1 [Example R-13, 2-(2,6-difluorophenylamino)-5-(4-(piperazin-1-yl)phenyl)oxazole-4-carboxamide] | – | – | –
– | – | – | – | – | Cc1cc(Nc2cc(N3CCN(C)CC3)nc(Sc3ccc(NC(=O)C4CC4)cc3)n2)n[nH]1 [VX-680] | – | – | potently killed
